Test results taken from patent publication US20210369812A1, “OSTEOINDUCTIVE PEPTIDES, COMPOSITIONS, IMPLANTS, AND METHODS OF USE” (The Board of Regents of the University of Oklahoma, priority 2018, published 2021).

Test system: rat radial bone defect model
Test: Histological staining (HE, Von Kossa) of implanted scaffolds
Type: in vivo
Conditions: 4-week implants
Text: After 4 weeks and 12 weeks, animals (N=5) were euthanized by CO2 asphyxiation. The sections of the arms containing the implant (at the radius bone) were then cut way from the rest of the animal using bone cutters. The 4-week implant samples were fixed in 10% (w/v) neutral formalin solution for 4 days. The 12-week samples were fixed in 4% paraformaldehyde for 4 days. Paraformaldehyde was used as it can produce better CD31 vascularization stains relative to fixing with formalin. The samples were then placed in a solution of 70% ethanol to 30% water (v/v).
The tissue sections were deparaffinized and hydrated with distilled water. Hematoxylin was applied to the sample with enough volume to cover the tissue section followed by incubation for 5 min. The mounted tissue slide was then rinsed in 2 changes of distilled water (sections were allowed to soak for 15 sec on each exchange of water). Enough Bluing Reagent was then added to the tissue section to completely cover it followed by incubation for 10-15 sec. The slides were then rinsed again in 2 changes of distilled water allowing 15 sec of contact with the water each time. The slides were then dipped in 100% ethanol for 10 sec. The excess ethanol was blotted off. Enough Eosin Y Solution was then added to completely cover the tissue section followed by incubation for 2-3 min. The slides were then rinsed in 100% ethanol for 10 sec. […]

Sequence: VHVPLHRGAVSA (Completely synthesized in the lab - Ph.D.-12 Phage Display Peptide Library Kit (New England Biolabs))
- New bone tissue / calcium deposits (Von Kossa stain): New bone tissue was observed to be best
